From article PMC6688628, “N-Substituted Pyrrole Derivative 12m Inhibits HIV-1 Entry by Targeting Gp41 of HIV-1 Envelope Glycoprotein” (Frontiers in Pharmacology, 2019) come the findings set out here.

A short description of data set [1]: XTT assay, U87-CD4-CXCR4 cells. The conditions noted are these: human. In kind it is cell-based. As to the method: (§1) The in vitro cell viability of NSPD-12m on HIV-1 target cells (U87-CD4-CXCR4, U87-CD4-CCR5, TZM-bl, and MT-2 cells) and HIV effector cells (CHO-WT cells) was analyzed by an XTT colorimetric assay. Briefly, 100 µl of 5 × 10^5/ml cells was mixed and incubated with 100 µl of NSPD-12m at graded concentrations at 37°C for 3 days. Then, 50 µl of XTT solution (1 mg/ml) containing 0.02 µM of phenazinemethosulphate (PMS) was added to each well, and the cells were incubated at 37°C for another 4 h. The absorbance at 450 nm was measured with an ELISA reader. The 50% cytotoxicity concentrations (CC50) were calculated using the CalcuSyn software ([Chou and Talalay, 1984]).

Data set [2] in a line: XTT assay, MT-2 cells. The note with it: human. It is filed as cell-based. The procedure: as §1
Data set [3] has as its system HIV-1JR-FL (R5 strain) Env pseudotyped virus. The data set is described as follows: microbe, parasite or virus in culture. The conditions noted are these: Human immunodeficiency virus 1, single-cycle infection, luciferase. It is filed as cell-based.
The subject of data set [4] is HIV-1HXB2 (X4 strain) Env pseudotyped virus. The data set is described as follows: microbe, parasite or virus in culture. In kind it is cell-based. The conditions noted are these: Human immunodeficiency virus 1, single-cycle infection, luciferase.
Data set [5] deals with VSV-G pseudotyped virus. In kind it is cell-based, vesicular stomatitis virus.
For data set [6], the system named is HIV-1 Env-mediated fusion of CHO-WT cells with MT-2 cells. As to the kind of experiment: HIV-1 Env-mediated cell-cell fusion (syncytium formation). The note with it: Human immunodeficiency virus 1, MT2; CHO-WT effector cells, MT-2 target cells; 48 h. It is filed as cell-based. The procedure:
Here, a noninfectious cell–cell fusion assay was used to determine the effect of NSPD-12m on the early step of HIV-1 entry into a target cell as described previously ([Li et al., 2010]). Briefly, 1 × 10^5 CHO-WT cells expressing the HIV-1 envelope glycoprotein gp160 (as the effector cells) were preincubated with graded concentrations of NSPD-12m at 37°C for 30 min. Then, 1 × 10^5 MT-2 cells expressing the CD4 receptor and the CXCR4 coreceptor (as the target cells) were added and cocultured for another 48 h. The obvious syncytia could be counted under an inverted microscope (Nikon, Japan). Four fields per well were examined randomly. The EC50 values were calculated as described previously ([Chou and Talalay, 1984]).

Data set [7] concerns the target T1, gp41 6-HB (N36/C34) (Human immunodeficiency virus type 1 group M subtype B, UniProt P04578).
T1 construct: purchased GL Biochem of China; host or cells: chemical solid-phase Fmoc synthesis
As to the kind of experiment: N-PAGE for gp41 6-HB formation. It is filed as biochemical, HIV-1. The note with it: 400, 200, 100, 50, and 25 μM incubated with N36 before C34; dose-dependent. As to the method:
The inhibition of gp41 6-HB formation by NSPD-12m was further confirmed by N-PAGE as reported previously ([Liu et al., 2005]). Briefly, NSPD-12m at the indicated concentrations was incubated with the peptide N36 (100 μM in PBS) at 37°C for 30 min before the addition of the peptide C34 (100 μM in PBS). After incubation at 37°C for another 30 min, the mixture was diluted in Tris-glycine native sample buffer (Invitrogen, Carlsbad, CA) and then loaded onto 10 × 1.0-cm precast Tris-glycine gels (18%, Invitrogen) at 20 µl/well. Gel electrophoresis was carried out at constant voltage of 120 V at room temperature (RT) for 2 h in Tris-glycine native running buffer. Immediately after electrophoresis, the gel was stained by Coomassie blue (Invitrogen) and imaged by the FluorChem 8800 Imaging System (Alpha Innotech, San Leandro, CA). ADS-J1 (1 mM in PBS), a small-molecule HIV-1 entry inhibitor that blocks gp41 6-HB formation, was used as a positive control ([Wang et al., 2009]).

For data set [8], the target named is T1, gp41 6-HB (N36/C34). As to the kind of experiment: CD spectroscopy of N36/C34 alpha-helical conformation. It is filed as biochemical, HIV-1. The conditions noted are these: 20-µM compound preincubated with N36 before the addition of C34. The procedure:
The effects of NSPD-12m on the formation of the secondary α-helix structures of the peptides N36 and C34 were detected by CD spectroscopy as described previously ([Liu et al., 2005]; [Zhang et al., 2018]). Briefly, the peptide N36 (10 µM in PBS) was incubated with NSPD-12m (20 µM in PBS) or PBS at 37°C for 30 min, followed by incubation with the peptide C34 (10 µM in PBS) at 37°C for another 30 min. To further confirm that NSPD-12m inhibited the formation of secondary α-helix structures, the peptide N36 was incubated with the peptide C34 at 37°C for 30 min before the addition of the compound. ADS-J1 (40 µM in PBS) was used as a positive control. The reported CD spectra of the peptides N36 and C34 and the mixture of N36, C34, and the compounds described previously were obtained at 25°C using a Jasco 715 spectropolarimeter (Jasco Inc., Japan) with a 5.0-nm bandwidth, 0.1-nm resolution, 0.1-cm path length, 4.0-s response time, and 50-nm/min scanning speed. The spectra were corrected by the subtraction of a blank corresponding to the solvent. The quantities of compounds with α-helix structures were estimated from the molar ellipticity at 222 nm using Jasco software utilities.

Data set [9] relates to HIV-1 NL4-3(36G)V38A,N42D. The note with it: T20-resistant NL4-3(36G)V38A,N42D; p24 ELISA; mean ± SD.
In data set [10] the test system is HIV-1 NL4-3(36G)V38A. The conditions noted are these: T20-resistant NL4-3(36G)V38A; p24 ELISA; mean ± SD.
The subject of data set [11] is HIV-1 NL4-3(36G)V38E,N42S. The conditions noted are these: T20-resistant NL4-3(36G)V38E,N42S; p24 ELISA; mean ± SD.

T1 sequence (P04578 546-581): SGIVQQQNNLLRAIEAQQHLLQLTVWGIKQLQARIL

Regarding `Cc1cc(/C=C2\SC(=S)N(Cc3ccccc3C(F)(F)F)C2=O)c(C)n1-c1ccc(O)c(C(=O)O)c1` [NSPD-12m], the 50% cytotoxic concentration (CC50) at 3 days amounted to 101.4 ± 0.48 µM in data set [1] and 67.1 ± 11 µM in [2]. In addition, the CC90 at 3 days in data set [1] amounted to 122.5 ± 0.59 µM; in [2], 124 ± 70.2 µM. Moreover, the half-maximal effective concentration (EC50) in [3] was approximately 14 µM; in [4], approximately 23.1 µM; in data set [6], 14.4 ± 1.24 µM. The “inhibition of VSV-G pseudovirus infection” value in data set [5] is “could not be strongly inhibited”. Further, the “intensity of the 6-HB band (upper position) in N-PAGE” value in data set [7] is reported as “decreased”. Further, the “α-helical content of the 6-HB (CD, 222 nm)” value in [8] is “clearly reduced”. Moreover, the figures for the IC50 in data set [9], in data set [10] and in data set [11] were 22.4 ± 2.84 µM, 23.7 ± 5.15 µM and 5.26 ± 0.762 µM, respectively. Further, the concentration for an effect of 90% (IC90) in data set [9] came out at 32.5 ± 4.95 µM; in data set [10] it was 32.5 ± 5.42 µM; in data set [11], 19.6 ± 0.552 µM.
